# In patent US5225566A, “Indazolanonyl derivative of benzopyran” (American Home Products Corporation, priority 1992, dated 1993):
# What was measured:
# [1] = system: isolated rat bladder strips; test: Inhibition of contractions in isolated rat bladder strips; set-up: species or system rat (Sprague-Dawley); settings: for IC50: 0.5 h, additional 15 mM KCl, 30 min challenge
# Source text: In addition, smooth muscle relaxing activity of the compounds of this invention was established in accordance with standard pharmaceutically accepted test procedures in representative compounds as follows:
# Sprague-Dawley rats (150-200 g) are rendered unconscious by CO2 asphyxiation and then euthanized by cervical dislocation. The bladder is removed into warm (37 deg.C.) physiological salt solution (PSS) of the following composition (mM): NaCl, 118.4; KCl, 4.7; CaCl2, 2.5; […]; NaHCO3, 24.9; KH2 PO4, 1.2; glucose, 11.1; EDTA, 0.023; gassed with […]; pH 7.4. The bladder is opened and then cut into strips 1-2 mm in width and 7-10 mm in length. The strips are subsequently suspended in a 10 ml tissue bath under an initial resting tension of 1.5 g. The strips are held in place by two surgical clips one of which is attached to fixed hook while the other is attached to an isometric force transducer. […] The carbachol is then washed out and the tissue allowed to relax to its resting level of activity. Following 1 further 30 min period of recovery an additional 15 mM KCl are introduced into the tissue bath. This increase in KCl concentration results in a large increase in the amplitude of spontaneous contractions (and initiation of contractions in previously quiescent strips) superimposed upon a small increase in basal tone. Following stabilization of this enhanced level of contractile activity, incremental increases in the concentration of test compound or vehicle are introduced into the tissue bath. Contractile activity is measured for each compound or vehicle concentration during the last min of a 30 min challenge.
# Isometric force developed by the bladder strips is measured using a […] to elicit 50% inhibition of pre-drug contractile activity (IC50 concentration) is calculated from this concentration-response curve. The maximum percentage inhibition of contractile activity evoked by a test compound is also recorded for concentrations of test compound<or equal to 30 uM.
# [2] = system: spontaneously hypertensive rats (SHR); test: Blood pressure lowering and heart rate in conscious spontaneously hypertensive rats, oral; assay type: in vivo, rat (male Okamoto-Aoki SHR)
# Source text: The blood pressure lowering activity of the compounds of this invention was established in accordance with standard pharmaceutically accepted test procedures in representative compounds as follows:
# Male Okamoto-Aoki spontaneously hypertensive rats (SHR) ranging in weight from 250-400 g were anesthetized with halothane. Their left femoral arteries and veins were cannulated with polyethylene tubing of the appropriate size (i.d. 0.023", o.d. 0.038"). Each animal was placed in a Bollman cage, and the tail, along with two cannulas, was extended through a hole in one end of the cage. The tail was taped securely to a firm rubber board to prevent the rat from turning in its cage to dislodge the cannulas. The femoral arterial cannula was connected to a Statham pressure transducer which in turn was attached to a polygraph for recording arterial pressure and pulse rate. The pulse rate was considered to be the heart rate.
# After the blood pressure has stabilized (usually 2 hours after cessation of the anesthesia), standard agonists were injected by the i.v. route. The doses administered were: isoproterenol 0.5 μg/kg, adrenaline 2.0 μg/kg, tyramine 200 μg/kg and angiotensin-I 0.25 μg/kg. The agonists were given in random order except that tyramine was never preceded by isoproterenol as the response to tyramine seemed to be blunted after a prior injection of isoproterenol. Enough time was allowed for the BP to return to preinjection levels before the test compound was administered by gastric lavage. The time of drug administration was designated as time zero. Heart rate and blood pressure were recorded at 5,10,15,30,45 and 60 minutes and hourly thereafter for a period of 4 hours after drug administration. At 1 and 2 hours post-drug the agonists were again injected at the same concentration and in the same order as during the control period.
# For each dose, the maximum fall in blood pressure was given in mm Hg and also expressed as a percentage decrease compared to pretreatment control values. Linear regression on the maximum decrease in mean arterial blood pressure at each dose was used to calculate the ED30 (the dose which would lower mean arterial pressure by 30%). A decrease in mean arterial blood pressure of 30% reduces the blood pressure from the hypertensive to the normotensive range.
smiles,measurement,setting,value
"CC1(C)Oc2ccc(OC(F)(F)F)cc2[C@@H](n2[nH]c3ccccc3c2=O)[C@@H]1O [Example 1, (-)-2-[(3S,4R)-3-Hydroxy-2,2-dimethyl-6-trifluoromethoxy-chroman-4-yl]-1,2-dihydro-indazol-3-one]",IC50,[1],44 nM
same,inhibition at 0.3 µM,"[1]; at 0.3 μM, read-out: Inhibition of Force (%) at (x) μM",100%
same,Max Δ BP (mean arterial blood pressure),"[2]; 0.1 mg/kg p.o., 15 m",-41 mm Hg
same,"Max Δ BP, %","[2]; 0.1 mg/kg p.o., 15 m",-21 ± 3%
same,Max Δ HR (heart rate),"[2]; 0.1 mg/kg p.o., 15 m",+58 beats/min
same,"Max Δ HR, %","[2]; 0.1 mg/kg p.o., 15 m",+16 ± 6%
same,Δ BP (mean arterial blood pressure),"[2]; 0.1 mg/kg p.o., 2 h",-13 mm Hg
same,"Δ BP, %","[2]; 0.1 mg/kg p.o., 2 h",-7 ± 2%
same,Δ HR (heart rate),"[2]; 0.1 mg/kg p.o., 2 h",-29 beats/min
same,"Δ HR, %","[2]; 0.1 mg/kg p.o., 2 h",-7 ± 3%
same,Max Δ BP (mean arterial blood pressure),"[2]; 0.3 mg/kg p.o., 30 m",-102 mm Hg
same,"Max Δ BP, %","[2]; 0.3 mg/kg p.o., 30 m",-55 ± 2%
same,Max Δ HR (heart rate),"[2]; 0.3 mg/kg p.o., 30 m",+90 beats/min
same,"Max Δ HR, %","[2]; 0.3 mg/kg p.o., 30 m",+25 ± 6%
same,Δ BP (mean arterial blood pressure),"[2]; 0.3 mg/kg p.o., 4 h",-22 mm Hg
same,"Δ BP, %","[2]; 0.3 mg/kg p.o., 4 h",-12 ± 4%
same,Δ HR (heart rate),"[2]; 0.3 mg/kg p.o., 4 h",+36 beats/min
same,"Δ HR, %","[2]; 0.3 mg/kg p.o., 4 h",+10 ± 4%
same,Max Δ BP (mean arterial blood pressure),"[2]; 1.0 mg/kg p.o., 45 m",-112 mm Hg
same,"Max Δ BP, %","[2]; 1.0 mg/kg p.o., 45 m",-59 ± 4%
same,Max Δ HR (heart rate),"[2]; 1.0 mg/kg p.o., 45 m",+41 beats/min
same,"Max Δ HR, %","[2]; 1.0 mg/kg p.o., 45 m",+11 ± 12%
same,Δ BP (mean arterial blood pressure),"[2]; 1.0 mg/kg p.o., 4 h",-92 mm Hg
same,"Δ BP, %","[2]; 1.0 mg/kg p.o., 4 h",-47 ± 15%
same,Δ HR (heart rate),"[2]; 1.0 mg/kg p.o., 4 h",-31 beats/min
same,"Δ HR, %","[2]; 1.0 mg/kg p.o., 4 h",-9 ± 13%
"Cn1c2ccccc2c(=O)n1[C@@H]1c2cc(OC(F)(F)F)ccc2OC(C)(C)[C@H]1O [Example 2, (-)-2-[(3S,4R)-3-Hydroxy-2,2-dimethyl-6-trifluoromethoxy-chroman-4-yl]-1-methyl-1,2-dihydro-indazol-3-one]",IC50,[1],9000 nM
same,inhibition at 10 µM,"[1]; at 10 μM, read-out: Inhibition of Force (%) at (x) μM",58%
same,Max Δ BP (mean arterial blood pressure),"[2]; 1.0 mg/kg p.o., 45 m",-22 mm Hg
same,"Max Δ BP, %","[2]; 1.0 mg/kg p.o., 45 m",-13 ± 2%
same,Max Δ HR (heart rate),"[2]; 1.0 mg/kg p.o., 45 m",+17 beats/min
same,"Max Δ HR, %","[2]; 1.0 mg/kg p.o., 45 m",+4 ± 1%
"CC1(C)Oc2ccc(OC(F)(F)F)cc2[C@H](n2[nH]c3ccccc3c2=O)[C@H]1O [Example 7, (+)-2-[(3R,4S)-3-Hydroxy-2,2-dimethyl-6-trifluoromethoxychroman-4-yl]-1,2-dihydro-indazol-3-one]",Max Δ BP (mean arterial blood pressure),"[2]; 0.1 mg/kg p.o., 5 m",-12 mm Hg
same,"Max Δ BP, %","[2]; 0.1 mg/kg p.o., 5 m",-7 ± 1%
same,Max Δ HR (heart rate),"[2]; 0.1 mg/kg p.o., 5 m",+39 beats/min
same,"Max Δ HR, %","[2]; 0.1 mg/kg p.o., 5 m",+10 ± 3%
same,Max Δ BP (mean arterial blood pressure),"[2]; 1.0 mg/kg p.o., 30 m",-96 mm Hg
same,"Max Δ BP, %","[2]; 1.0 mg/kg p.o., 30 m",-51 ± 1%
same,Max Δ HR (heart rate),"[2]; 1.0 mg/kg p.o., 30 m",+114 beats/min
same,"Max Δ HR, %","[2]; 1.0 mg/kg p.o., 30 m",+31 ± 7%
same,Δ BP (mean arterial blood pressure),"[2]; 1.0 mg/kg p.o., 4 h",-20 mm Hg
same,"Δ BP, %","[2]; 1.0 mg/kg p.o., 4 h",-11 ± 2%
same,Δ HR (heart rate),"[2]; 1.0 mg/kg p.o., 4 h",+38 beats/min
same,"Δ HR, %","[2]; 1.0 mg/kg p.o., 4 h",+10 ± 4%
"Cc1ccc2[nH]n([C@@H]3c4cc(OC(F)(F)F)ccc4OC(C)(C)[C@H]3O)c(=O)c2c1 [Example 8, (-)-2-[(3S,4R)-3-Hydroxy-2,2-dimethyl-6-trifluoromethoxy-chroman-4-yl]-5-methyl-1,2-dihydro-indazol-3-one]",IC50,[1],11 nM
